Legend:
GP IIb/IIIa = assay: Whole blood flow cytometry; assay type: cell-based, human; conditions: for GP IIb/IIIa (mean) log fluorescence intensity / GP IIb/IIIa (peak) log fluorescence intensity: Whole Blood; for GPIIb/IIIa expression (FIG. 1), in words: sertraline 18.1, 44.7 or 85.3 ng/ml, NDMS 31.1, 64.1, 143.0 ng/ml; for GPIIb/IIIa expression (FIG. 7), in words: whole blood, post-coronary angioplasty patient, increasing concentrations
Description: For ex vivo assessment of the SSRIs effect on a PAM, a level of a PAM can be assessed by flow cytometry by first obtaining a sample that comprises platelets and then contacting the sample with a platelet activation agonist, such as phorbol myristate acetate (PMA), ADP (adenosine diphosphate), thrombin, collagen, and/or TRAP (thrombin receptor activating peptide), under conditions suitable for activation of platelets in the sample. The sample is in contact with the agonist preferably for a period of time effective to maximally activate the platelets. […] Then one contacts or stains the samples with a composition that comprises an anti-PAM antibody e.g., having a fluorescent label, preferably in an amount in excess of that required to bind the PAM expressed on the platelets, under conditions suitable for the formation of labeled complexes between the anti-PAM antibody and activated platelets. Then the formation of the complex in the sample is determined (detected or measured).
Four cc of blood was collected in a tube, containing 2 cc of acid-citrate-dextrose (ACD) (7.3 g citric acid, 22.0 g sodium citrate×2H2O and 24.5 glucose in a total amount of 1000 mL distilled water) and mixed well. The buffer, TBS (10 mM Tris, 0.15 M NaCl, pH 7.4) and the following fluorescein isothiocyanate (FITC) conjugated monoclonal antibodies (PharMingen, San Diego, Calif. USA, and DAKO, Calif., USA) were removed from a refrigerator and allowed to warm at room temperature (RT): CD41 (IIb/IIIa), CD31 (PECAM-1), CD62p (P-selectin), CD51/61 (Vitronectin receptor). Six amber tubes (1.25 ml) were obtained and marked. One Eppendorf tube (1.5 ml) was labeled with “Dill WB”, Patient ID #, Initial and Date. The amber tubes and Eppendorf tube were placed in the rack. […] of TBS buffer was pipetted to the labeled Eppendorf tube. The patient's whole blood tube was inverted gently twice to mix. 50 μl of whole blood was pipetted to the “Dill WB” labeled Eppendorf tube. The Eppendorf tube was capped and the diluted whole blood was mixed by inverting the Eppendorf tube gently two times 50 μl of diluted whole blood was pipetted to each amber tube. 5 μl of appropriate antibody was pipetted to the bottom of the corresponding amber tube. The tubes were covered with aluminum foil and incubated at 4° C. for 30 minutes. After incubation, 400 μl of 2% buffered paraformaldehyde was added. To prepare 2% Paraformaldehyde:Dilute 1 part 10% paraformaldehyde with 4 parts TBS. This solution was stored at 4° C. for up to one week. The amber tubes were closed with a lid tightly and stored in a refrigerator at 4° C. until the flow cytometric analysis. The samples are analyzed on a Becton Dickinson FACScan flow cytometer. The instrument is set up to measure forward light scatter (FSC), and FITC fluorescence. All parameters are collected using four decade logarithmic amplification.
The data in table 1 was obtained using the methods described herein, and in particular, in Examples 1 and 2. The levels of various PAMs were assess from samples of human volunteers. […] Baseline levels of the PAMs were also obtained (without exposure to sertraline or NDMS).

Vitronectin receptor = assay: Flow cytometry of platelet antigen expression, platelet rich plasma; assay type: cell-based, human; conditions: for Vitronectin (mean) log fluorescence intensity / Vitronectin (peak) log fluorescence intensity: PRP
Description: For ex vivo assessment of the SSRIs effect on a PAM, a level of a PAM can be assessed by flow cytometry by first obtaining a sample that comprises platelets and then contacting the sample with a platelet activation agonist, such as phorbol myristate acetate (PMA), ADP (adenosine diphosphate), thrombin, collagen, and/or TRAP (thrombin receptor activating peptide), under conditions suitable for activation of platelets in the sample. The sample is in contact with the agonist preferably for a period of time effective to maximally activate the platelets. […] Then the formation of the complex in the sample is determined (detected or measured). […] The blood-ACD mixture was centrifuged at 1000 r.p.m. for 10 minutes at room temperature. […] The PRP was then centrifuged at 3000 r.p.m. for 10 minutes. […] All cells were then divided into ten plastic capped tubes. Nine portions of washed platelets were incubated with 5 μfluorescein isothiocyanate (FITC)-conjugated antibodies in the dark at +4 °C for 30 minutes, and one part remained unstained and served as a negative control. […] The instrument was calibrated daily with fluorescence beads (CaliBRITE; Becton Dickinson) and measured FITC-conjugated fluorescence intensity. All parameters were obtained using four decade logarithmic amplification. The data was collected and stored in list mode, and then analyzed using CELLQuest® (version 1.2.2) software. Procedures are described in detail in (Gurbel, P. […] Serebruany, V. […] The levels of various PAMs were assess from samples of human volunteers.

[1] = healthy volunteers, desmethylsertraline 31.1 ng/ml
[2] = healthy volunteers, desmethylsertraline 64.2 ng/ml
[3] = healthy volunteers, desmethylsertraline 143 ng/ml
[4] = post-angioplasty patient on aspirin, desmethylsertraline 31.1 ng/ml
[5] = post-angioplasty patient on aspirin, desmethylsertraline 64.2 ng/ml
[6] = post-angioplasty patient on aspirin, desmethylsertraline 143 ng/ml
[7] = whole blood from a healthy volunteer
[8] = healthy volunteers, sertraline 18.1 ng/ml
[9] = healthy volunteers, sertraline 44.7 ng/ml
[10] = healthy volunteers, sertraline 85.3 ng/ml
[11] = post-angioplasty patient on aspirin, sertraline 18.1 ng/ml
[12] = post-angioplasty patient on aspirin, sertraline 44.7 ng/ml
[13] = post-angioplasty patient on aspirin, sertraline 85.3 ng/ml

**Q.** Which results are given for N[C@H]1CC[C@@H](c2ccc(Cl)c(Cl)c2)c2ccccc21 [Desmethyl sertraline, N-desmethylsertraline]?
**A.** GP IIb/IIIa (mean) log fluorescence intensity (GP IIb/IIIa; [1]): 346; GP IIb/IIIa (peak) log fluorescence intensity (GP IIb/IIIa; [1]): 340; GP IIb/IIIa (mean) log fluorescence intensity (GP IIb/IIIa; [2]): 403; GP IIb/IIIa (peak) log fluorescence intensity (GP IIb/IIIa; [2]): 355; GP IIb/IIIa (mean) log fluorescence intensity (GP IIb/IIIa; [3]): 314; GP IIb/IIIa (peak) log fluorescence intensity (GP IIb/IIIa; [3]): 264; GP IIb/IIIa (mean) log fluorescence intensity (GP IIb/IIIa; [4]): 277; GP IIb/IIIa (peak) log fluorescence intensity (GP IIb/IIIa; [4]): 268; GP IIb/IIIa (mean) log fluorescence intensity (GP IIb/IIIa; [5]): 219; GP IIb/IIIa (peak) log fluorescence intensity (GP IIb/IIIa; [5]): 245; GP IIb/IIIa (mean) log fluorescence intensity (GP IIb/IIIa; [6]): 242; GP IIb/IIIa (peak) log fluorescence intensity (GP IIb/IIIa; [6]): 232; GPIIb/IIIa expression, NDMS compared with sertraline (FIG. 1) (GP IIb/IIIa; [7]): more effectively decreased the expression of GPIIb/IIIa; GPIIb/IIIa expression (FIG. 1), in words (GP IIb/IIIa; [7]): dose dependent decrease in the expression; GPIIb/IIIa expression (FIG. 7), in words (GP IIb/IIIa): striking decreases in expression; Vitronectin (mean) log fluorescence intensity (Vitronectin receptor; [1]): 677; Vitronectin (peak) log fluorescence intensity (Vitronectin receptor; [1]): 620; Vitronectin (mean) log fluorescence intensity (Vitronectin receptor; [2]): 623; Vitronectin (peak) log fluorescence intensity (Vitronectin receptor; [2]): 508; Vitronectin (mean) log fluorescence intensity (Vitronectin receptor; [3]): 732; Vitronectin (peak) log fluorescence intensity (Vitronectin receptor; [3]): 670; Vitronectin (mean) log fluorescence intensity (Vitronectin receptor; [4]): 504; Vitronectin (peak) log fluorescence intensity (Vitronectin receptor; [4]): 560; Vitronectin (mean) log fluorescence intensity (Vitronectin receptor; [5]): 380; Vitronectin (peak) log fluorescence intensity (Vitronectin receptor; [5]): 425; Vitronectin (mean) log fluorescence intensity (Vitronectin receptor; [6]): 482; Vitronectin (peak) log fluorescence intensity (Vitronectin receptor; [6]): 544

**Q.** For CN[C@H]1CC[C@@H](c2ccc(Cl)c(Cl)c2)c2ccccc21 [sertraline], which “GP IIb/IIIa (mean) log fluorescence intensity” value (GP IIb/IIIa; [8]) is on record?
**A.** The value was 479.

**Q.** And the “GP IIb/IIIa (peak) log fluorescence intensity” value (GP IIb/IIIa; [8])?
**A.** The value was 418.

**Q.** And the “GP IIb/IIIa (mean) log fluorescence intensity” value (GP IIb/IIIa; [9])?
**A.** Its value is 476.

**Q.** And the “GP IIb/IIIa (peak) log fluorescence intensity” value (GP IIb/IIIa; [9])?
**A.** Its value is 437.

**Q.** And the “GP IIb/IIIa (mean) log fluorescence intensity” value (GP IIb/IIIa; [10])?
**A.** Its value is 498.

**Q.** And the “GP IIb/IIIa (peak) log fluorescence intensity” value (GP IIb/IIIa; [10])?
**A.** Its value is 437.

**Q.** What about the “GP IIb/IIIa (mean) log fluorescence intensity” value (GP IIb/IIIa; [11]) of the same molecule?
**A.** The value was 252.

**Q.** What about the “GP IIb/IIIa (peak) log fluorescence intensity” value (GP IIb/IIIa; [11]) of the same molecule?
**A.** The value was 266.

**Q.** And the “GP IIb/IIIa (mean) log fluorescence intensity” value (GP IIb/IIIa; [12])?
**A.** The value was 230.

**Q.** And the “GP IIb/IIIa (peak) log fluorescence intensity” value (GP IIb/IIIa; [12])?
**A.** Its value is 244.

**Q.** And the “GP IIb/IIIa (mean) log fluorescence intensity” value (GP IIb/IIIa; [13])?
**A.** Its value is 198.

**Q.** What about the “GP IIb/IIIa (peak) log fluorescence intensity” value (GP IIb/IIIa; [13]) of the same molecule?
**A.** Its value is 217.

**Q.** What about the “GPIIb/IIIa expression (FIG. 1), in words” value (GP IIb/IIIa; [7]) of the same molecule?
**A.** The value was “dose dependent decrease in the expression”.

**Q.** And the “GPIIb/IIIa expression (FIG. 7), in words” value (GP IIb/IIIa)?
**A.** The value was “striking decreases in expression”.

**Q.** What about the “Vitronectin (mean) log fluorescence intensity” value (Vitronectin receptor; [8]) of the same molecule?
**A.** The value was 810.

**Q.** And the “Vitronectin (mean) log fluorescence intensity” value (Vitronectin receptor; [9])?
**A.** Its value is 510.

**Q.** What about the “Vitronectin (mean) log fluorescence intensity” value (Vitronectin receptor; [10]) of the same molecule?
**A.** Its value is 667.

**Q.** What about the “Vitronectin (mean) log fluorescence intensity” value (Vitronectin receptor; [11]) of the same molecule?
**A.** Its value is 405.

**Q.** And the “Vitronectin (mean) log fluorescence intensity” value (Vitronectin receptor; [12])?
**A.** The value was 344.

**Q.** What about the “Vitronectin (peak) log fluorescence intensity” value (Vitronectin receptor; [12]) of the same molecule?
**A.** The value was 393.

**Q.** And the “Vitronectin (mean) log fluorescence intensity” value (Vitronectin receptor; [13])?
**A.** Its value is 529.

**Q.** What about the “Vitronectin (peak) log fluorescence intensity” value (Vitronectin receptor; [13]) of the same molecule?
**A.** The value was 585.

**Q.** And the “surface expression of vitronectin receptor, in words” value (Vitronectin receptor; plasma concentration 85.3 ng/ml, equivalent to 200 mg/daily)?
**A.** The value was “diminished surface expression”.

Reference: US6552014B2, “Methods of inhibiting platelet activation with selective serotonin reuptake inhibitors” (HeartDrug Research, L.L.C., priority 1999, dated 2003)
